Drawing on ChEMBL document CHEMBL3507680, “University of Dundee, Gates Library screen for HepG2 cell viability”, this text covers cytotoxicity for 70 compounds.

A short description of the series: Human HepG2 cell viability assay in 384 well format. Set-up: dose 125 nL, time 70.5 hour; concentration not given beside the values. In kind it is toxicity, cell-based. To be noted: HepG2 cells, read-out: Inhibition.
`CC1CCc2nc(O)c(C(=O)NCc3ccccn3)cc2C1` (stereo not given): the cytotoxicity at 70.5 h was -5.86%.

`Cc1ccc2c(c1)C(=O)NCC1(CCN(C(=O)c3sccc3C)CC1)O2`: the cytotoxicity at 70.5 h was -5.39%.

For the compound `CC(C)N1CCC(Cc2cncc(-c3ccccc3C(=O)O)n2)C1` (stereo not given), the cytotoxicity at 70.5 h was -4.44%.

For `COc1ccc(C2=CNC(C(F)(F)F)=CC2N)cc1` (stereo not given), the cytotoxicity at 70.5 h was -0.00247%.

Regarding `Cc1ccc2c(c1)CCC21CCN(C(=O)CN(C)C)CC1`, the cytotoxicity at 70.5 h was -1.12%.

Consider `COCC1CN(C(=O)Cc2ccccn2)Cc2cn(CC3CC3)nc21` (stereo not given), for which the cytotoxicity at 70.5 h is -14.6%.

Take `Cc1nccn1-c1ccc(CNS(=O)(=O)N2CCCCC2C)cn1` (stereo not given): the cytotoxicity at 70.5 h was -3.35%.

As to `CCC(NC(=O)c1nn(C)cc1C(=O)O)c1ccc(C)cc1` (stereo not given), the cytotoxicity at 70.5 h was -5.71%.

Take `CCN(CC1CCOC1)C(=O)NCc1ccc(-n2cncn2)nc1` (stereo not given): the cytotoxicity at 70.5 h was -1.6%.

Take `CCc1ncc2c(n1)CN(CC1CCCCO1)CC2` (stereo not given): the cytotoxicity at 70.5 h stood at 8.28%.

Consider `O=C1OC2(CCN(CC3CCCO3)CC2)CN1CCc1ccccc1` (stereo not given), for which the cytotoxicity at 70.5 h was 2.25%.

`Cc1cc(C)c(CNC(=O)NCCc2cccnc2)c(=O)[nH]1`: the cytotoxicity at 70.5 h was -10.1%.

For the compound `CC(c1cccnc1)N(C)Cc1cc(O)c2cc(F)ccc2n1` (stereo not given), the cytotoxicity at 70.5 h is -6.6%.

On to `c1ccc(-c2noc(CNC3CCCN(c4cccnn4)C3)n2)nc1` (stereo not given), for which the cytotoxicity at 70.5 h was 0.881%.

Consider `CCc1c(C)sc2nc3n(CCN4CCOCC4)nc(SC)n3c(=O)c12`, for which the cytotoxicity at 70.5 h was determined as 5.28%.

Turning to `COc1ccc(C(=O)N(Cc2cnn(C)c2)C(C)C)cc1OC(F)F`, the cytotoxicity at 70.5 h was -3.59%.

As to `c1coc(CN2CCn3c(CN4CCOCC4)nnc3C2)c1`, the cytotoxicity at 70.5 h was -1.27%.

As for `Cc1ccncc1C(=O)N1C[C@H]2CN(CC3CCC3)C[C@@]2(C(=O)O)C1`, the cytotoxicity at 70.5 h was -8.6%.

As for `Cn1nccc1-c1ccc2nc(C3CCN(CCO)CC3)nn2c1`, the cytotoxicity at 70.5 h was -2.61%.

Take `CC(NC(=O)c1cccs1)C(=O)Nc1cccnc1N1CCCCC1` (stereo not given): the cytotoxicity at 70.5 h came to 2.11%.

As to `O=C(COC1CCCC1)N1CCCC1c1noc(C2CC2)n1` (stereo not given), the cytotoxicity at 70.5 h is -9.93%.

On to `Cc1cnc(N2CC[C@@H]3OC(COCC(=O)N(C)C)CC[C@@H]32)nc1` (stereo not given in full), for which the cytotoxicity at 70.5 h was -117%.

As for `COc1ccc(CNCCc2cccc(C(N)=O)c2)cc1O`, the cytotoxicity at 70.5 h was -6.24%.

Take `O=C(c1ccco1)N1CC2(CCNCC2)c2cc(Cl)ccc21`: the cytotoxicity at 70.5 h was determined as 27.2%.

In the case of `Cc1ccc(-c2n[nH]cc2CNCC2CCN(CC(F)(F)F)C2)o1` (stereo not given), the cytotoxicity at 70.5 h was -1.74%.

In the case of `Cc1cc(CN(C)C(=O)c2ccc(Cl)c(N3CCCC3=O)c2)no1`, the cytotoxicity at 70.5 h was found to be 28.1%.

Turning to `Cc1ccc(-c2cc(C(=O)N(C)Cc3noc4c3CCCC4)[nH]n2)s1`, the cytotoxicity at 70.5 h is 21.6%.

In the case of `CC(C)(C)c1cc(CN2C[C@H]3CC[C@@H]2CN(Cc2cscn2)C3)n[nH]1`, the cytotoxicity at 70.5 h was found to be 13.7%.

For the compound `CC(C)CN1CCn2nc(CNc3ncnc4[nH]ccc34)cc2C1`, the cytotoxicity at 70.5 h came out at 7.26%.

As to `Cc1nccn1Cc1nnc(C2CCCN(Cc3ccncc3)C2)n1C` (stereo not given), the cytotoxicity at 70.5 h is -17.2%.

Take `CC(C)c1noc(C(C)N2CCC(c3nc4ccccc4[nH]3)CC2)n1` (stereo not given): the cytotoxicity at 70.5 h was -7.42%.

Consider `COc1ccc(F)cc1-c1ccccc1CC1CNCCNC1=O` (stereo not given), for which the cytotoxicity at 70.5 h is 2.28%.

With `CN(C)CCN(C)C(=O)Nc1cc(F)cc(N2CCCC2)c1`, the cytotoxicity at 70.5 h is -6.32%.

For the compound `Cc1nccn1[C@@H]1CC[C@@H](NC(=O)Cn2c(C)nc3ccccc32)[C@H]1O`, the cytotoxicity at 70.5 h is 0.7%.

Regarding `CCc1cnc(CN(C)C2CCN(CC3CCN(C(C)=O)CC3)C2)o1` (stereo not given), the cytotoxicity at 70.5 h was determined as 10%.

As for `CCCOCC(=O)NS(=O)(=O)c1ccc2c(c1)OCCO2`, the cytotoxicity at 70.5 h is -0.678%.

Take `Cc1occc1C(=O)NCC(=O)N(C)CCCOc1ccccc1`: the cytotoxicity at 70.5 h is -1.18%.

With `CCn1nc(C)c2c1cnn2CCNS(=O)(=O)Cc1ccccc1`, the cytotoxicity at 70.5 h was found to be 11.3%.

In the case of `CCCN(CCOC)C(=O)c1cc(Cn2c(C)nc3ccccc32)[nH]n1`, the cytotoxicity at 70.5 h was -2.8%.

As to `CN(C)CCNC(=O)Nc1cccc(C[S+]([O-])Cc2ccccc2)c1` (stereo not given), the cytotoxicity at 70.5 h is -2.04%.

For `CCn1cc2c(n1)CN(C(=O)c1ccncc1)CC2COCC1CC1` (stereo not given), the cytotoxicity at 70.5 h was -25.7%.

Turning to `CCS(=O)(=O)CC(=O)NC(C)c1ccccc1Oc1ccccc1` (stereo not given), the cytotoxicity at 70.5 h was determined as 2.99%.

As for `COC(=O)c1cccc(OCCn2nc(-c3cccs3)oc2=O)c1`, the cytotoxicity at 70.5 h was -21.5%.

Turning to `CCS(=O)(=O)CC(=O)N1CCCC1c1noc(C2CC2)n1` (stereo not given), the cytotoxicity at 70.5 h was -8.04%.

Regarding `COc1cccc2c(=O)n(Cc3ccnc(C)c3)cnc12`, the cytotoxicity at 70.5 h was -26.7%.

With `CCN(C)C[C@@H]1CN(Cc2cccc(Cl)c2)C[C@@H]1CO`, the cytotoxicity at 70.5 h is -11.5%.

In the case of `Cn1cnnc1-c1ccnc(NCc2ccc3c(c2)OCCO3)c1`, the cytotoxicity at 70.5 h is -3.05%.

As for `Cc1ccc(NC(=O)C2CSCN2C(=O)c2cccnc2)c(C)c1` (stereo not given), the cytotoxicity at 70.5 h is 6.06%.

As for `COC[C@@]12CCC[C@@H]1CN(C(=O)CN(C)C)C2`, the cytotoxicity at 70.5 h is -6.84%.

`O=C(CCNc1ccc(Br)cn1)NCc1ccncc1`: the cytotoxicity at 70.5 h turned out to be 0.0133%.

`CN(C)CCO[C@H]1CN(Cc2cccc(C#N)c2)[C@@H]2COC[C@H]12`: the cytotoxicity at 70.5 h was -1.49%.

Regarding `COc1cc(NC2CCS(=O)(=O)CC2)ncn1`, the cytotoxicity at 70.5 h is -16.4%.

For the compound `N#Cc1cccc(N2CC3(CCN(C(=O)c4ccnnc4)C3)CC2=O)c1` (stereo not given), the cytotoxicity at 70.5 h is -10.5%.

Take `c1cc(-c2cncc(C3CCNCC3)n2)n[nH]1`: the cytotoxicity at 70.5 h was -6.89%.

For the compound `Cc1nc(C2CCCN2C(=O)c2ccc(F)cc2)ncc1C(N)=O` (stereo not given), the cytotoxicity at 70.5 h was -3.31%.

For `Cn1ccnc1-c1nccn1C[C@@H]1CCCN2CCCC[C@H]12`, the cytotoxicity at 70.5 h was 2.02%.

With `CC1CCN(C(=O)c2ccc(N(C)Cc3cnn(C)c3)nc2)CC1`, the cytotoxicity at 70.5 h was -7.81%.

As to `COc1cc(N2C[C@H](C(=O)N3CCCC3)[C@@H]3CCO[C@@H]3C2)ncn1`, the cytotoxicity at 70.5 h is -0.329%.

On to `CCc1cc(CN2CCC(CCC(=O)Nc3ccccc3Cl)CC2)on1`, for which the cytotoxicity at 70.5 h was -0.0329%.

For the compound `CCN(Cc1ccncc1)CC1(O)CCN(C(=O)c2cccc(C)n2)C1` (stereo not given), the cytotoxicity at 70.5 h is -4.96%.

Turning to `O=C(c1ncccn1)N1CC[C@H]2OCC[C@@]2(COc2ccccn2)C1`, the cytotoxicity at 70.5 h was -6.64%.

Consider `Fc1ccc(C2(NCc3ccccc3)CCOCC2)cc1`, for which the cytotoxicity at 70.5 h is -3.51%.

Take `COc1cccc(C(NCc2ccc(SC)cc2)c2nccn2C)c1` (stereo not given): the cytotoxicity at 70.5 h is 3.42%.

In the case of `Cc1csc(CCCNC(=O)[C@H]2CNC[C@@H](C(=O)N3CCCC3)C2)n1`, the cytotoxicity at 70.5 h is -9.44%.

For `Clc1cccnc1OC1CCNCC1`, the cytotoxicity at 70.5 h came to 22.1%.

Turning to `COc1cc(C(=O)N2CCCC(n3ccnc3)C2)cc2c1OCCO2` (stereo not given), the cytotoxicity at 70.5 h was -7.87%.

For the compound `CCS(=O)(=O)N1C[C@H]2CCC[C@@]2(COc2ccccn2)C1`, the cytotoxicity at 70.5 h is -21.9%.

Turning to `COc1cccc(CN2CCCCC2c2n[nH]cc2-c2cc(C)no2)c1` (stereo not given), the cytotoxicity at 70.5 h was -3.89%.

Turning to `CNC(=O)CCS(=O)(=O)Cc1nnnn1-c1ccccc1`, the cytotoxicity at 70.5 h is -3.85%.

As to `O=C(Nc1cccc(CN2CCOC2=O)c1)N1CCOCC1`, the cytotoxicity at 70.5 h was -3.32%.
